The values below are quoted from earlier work in patent US20130137759A1, “COMPOSITIONS AND METHODS FOR TREATING PARASITIC DISEASE” (Worcester Polytechnic Institute, priority 2010, published 2013).

Structures are written as SMILES.

For data set [1] the following is noted: rats, intragastric in 1:9 dimethyl-acetamide-oil, 10 mg kg^−1 (2,320 μg per rat).

With `C[C@H]1[C@@H](O)O[C@@H]2O[C@@]3(C)CC[C@H]4[C@H](C)CC[C@@H]1[C@@]24OO3` [dihydroartemisinin], in data set [1], the “Plasma/serum concentration Artemisinin Cmax” value is 800 ng/mL.
`COc1cc2oc(-c3ccc(O)c(O)c3)c(OC)c(=O)c2c(O)c1OC` [chrysosplenol-D]: in the data set on P. falciparum (combined with pure AN), the “effect on AN activity against P. falciparum” value is listed as “significant enhancement of AN activity”. In the data set with P. falciparum (flavonoid alone), the “direct effect on P. falciparum” value is “no direct effect”.
As to `C[C@@H]1CC[C@H]2[C@@H](C)C(=O)O[C@@H]3O[C@@]4(C)CC[C@@H]1[C@]32OO4` [artemisinin], the half-life (commonly the time needed for the level to fall by half in the phase considered) (healthy male volunteers) was 1 to 3 h. For the setting “humans, pure AN (Rath et al. 2004)”, the tmax was 2.3 h.
